Here are results for one compound from patent US20060019964A1, “Compounds” (priority 2002, published 2006).

One series is described as follows: CNS penetration. Format: in vivo, male CD Sprague Dawley rats. Conditions: male, CD Sprague Dawley, brain; rat, 1 mg/kg intravenous, 5 minutes post-dose; described as low CNS penetration; read-out: CNS penetration (compound in brain tissue). The protocol: Compounds were dosed intravenously at a nominal dose level of 1 mg/kg to male CD Sprague Dawley rats. Compounds were formulated in 5% DMSO/45% PEG200/50% water. Blood samples were taken under terminal anaesthesia with isoflurane at 5 minutes post-dose and the brains were also removed for assessment of brain penetration. Blood samples were taken directly into heparinised tubes. Blood samples were prepared for analysis using protein precipitation and brain samples were prepared using extraction of drug from brain by homogenisation and subsequent protein precipitation. The concentration of parent drug in blood and brain extracts was determined by quantitative LC-MS/MS analysis using compound-specific mass transitions.

The target of the next series is T1, human H1 receptor (Homo sapiens, UniProt P35367).
T1 construct: expressed in transfected cells
Description: Histamine H1 functional antagonist assay (FLIPR). It counts as cell-based. Conditions: functional antagonism vs histamine EC80, FLIPR, CHO cells; read-out: average pki (pKb) at H1 (converted). The protocol:
H1 Receptor Cell Line Generation and FLIPR Assay Protocol
1. Generation of Histamine H1 Cell Line
The human H1 receptor was cloned using known procedures described in the literature [Biochem. Biophys. Res. Commun. 1994, 201(2), 894]. Chinese hamster ovary cells stably expressing the human H1 receptor were generated according to known procedures described in the literature [Br. J. Pharmacol. 1996, 117(6), 1071].
Histamine H1 Functional Antagonist Assay […]
10 μl of test compound, diluted to the required concentration in Tyrodes buffer+probenecid (or 10 μl Tyrodes buffer+probenecid as a control) was added to each well and the plate incubated for 30 min at 37° C., 5% CO2. The plates were then placed into a FLIPR™ (Molecular Devioes, UK) to monitor cell fluorescence (λex=488 nm, λEM=540 nm) in the manner described in Sullivan et al. (In: Lambert DG (ed.), Calcium Signaling Protocols, New Jersey: Humana Press, 1999, 125-136) before and after the addition of 10 μl histamine at a concentration that results in the final assay concentration of histamine being EC80.
Functional antagonism is indicated by a suppression of histamine induced increase in fluorescence, as measured by the FLIPR™ system (Molecular Devices). By means of concentration effect curves, functional affinities are determined using standard pharmacological mathematical analysis.

The next series concerns the target T2, histamine H3 receptor (Homo sapiens, UniProt Q9Y5N1).
T2 construct: expressed in transfected cells; host or cells: CHO K1 cells carrying pSwitch, transfected with pGeneH3, induced with mifepristone; clone 3H3; membrane preparation
The series can be described thus: Histamine H3 functional antagonist assay ([35S]-GTPγS, CHO cell membranes). The note with it: functional antagonism vs histamine EC80, GTPγS; read-out: average pki (pKb) at H3 (converted). Format: biochemical. From the text:
2. H3 Receptor Cell Line Generation, Membrane Preparation and Functional GTPγS Assay Protocols
Generation of Histamine H3 Cell Line
The histamine H3 cDNA was isolated from its holding vector, pcDNA3.1 TOPO (InVitrogen), by restriction digestion of plasmid DNA with the enzymes BamH1 and Not-1 and ligated into the inducible expression vector pGene (InVitrogen) digested with the same enzymes. The GeneSwitch™ system (a system where in transgene expression is switched off in the absence of an inducer and switched on in the presence of an inducer) was performed as described in U.S. Pat. Nos. 5,364,791; 5,874,534; and 5,935,934. […]
10-14 days post selection 10 nM Mifepristone (InVitrogen), was added to the culture medium to induce the expression of the receptor. […] Receptor bound antibody was detected by incubation of the cells for 60 minutes on ice with a goat anti rabbit antibody, conjugated with Alexa 488 fluorescence marker (Molecular Probes). Following two further washes with Sorting Medium, cells were filtered through a 50 μm Filcon™ (BD Biosciences) and then analysed on a FACS Vantage SE Flow Cytometer fitted with an Automatic Cell Deposition Unit. […]
A general note: GTPγS resists hydrolysis and so accumulates on activated G proteins.

The nature of another series: Rat pharmacokinetics. It counts as in vivo, male CD Sprague Dawley rats. The protocol: Compounds were dosed to male CD Sprague Dawley rats by single intravenous or oral administration at a nominal dose level of 1 mg/kg and 3 mg/kg respectively. Compounds were formulated in 5% DMSO,45% PEG200,50% water. An intravenous profile was obtained by taking serial or terminal blood samples at 0.083, 0.25, 0.5, 1, 2, 4, and 7 hours post dose. An oral profile was obtained by taking serial or terminal blood samples at 0.25, 0.5, 1, 2, 4, 7 and 12 hours post dose. Blood samples were taken directly into heparinised tubes. Blood samples were prepared by protein precipitation and subjected to quantitative analysis by LC-MS/MS using compound-specific mass transitions. Drug concentration-time profiles were generated and non-compartmental PK analysis used to generate estimates of half-life, clearance, volume of distribution and oral bioavailability.

The next series can be described thus: Dog pharmacokinetics. It counts as in vivo, male Beagle dogs. The procedure:
Compounds were dosed to male Beagle dogs by single intravenous or oral administration at a nominal dose level of 1 mg/kg and 2 mg/kg respectively. The study was carried out according to a crossover design such that the same dog was used for both dosing events and the dosing events occurred 1 week apart. Compounds were formulated in 5% DMSO,45% Peg200,50% water. An intravenous profile was obtained by taking serial blood samples at 0.083, 0.25, 0.5, 0.75, 1, 2, 4, 6 & 12 hr post dose. An oral profile was obtained by taking serial blood samples at 0.25, 0.5, 0.75, 1, 2, 4, 6, 12 & 24 hr post dose. Blood samples were taken directly into heparinised tubes. Blood samples were prepared by protein precipitation and subjected to quantitative analysis by LC-MS/MS using compound-specific mass transitions. Drug concentration-time profiles were generated and non-compartmental PK analysis used to generate estimates of half-life, clearance, volume of distribution and oral bioavailability.

Structures are written as SMILES.

T1 sequence (P35367 whole entry): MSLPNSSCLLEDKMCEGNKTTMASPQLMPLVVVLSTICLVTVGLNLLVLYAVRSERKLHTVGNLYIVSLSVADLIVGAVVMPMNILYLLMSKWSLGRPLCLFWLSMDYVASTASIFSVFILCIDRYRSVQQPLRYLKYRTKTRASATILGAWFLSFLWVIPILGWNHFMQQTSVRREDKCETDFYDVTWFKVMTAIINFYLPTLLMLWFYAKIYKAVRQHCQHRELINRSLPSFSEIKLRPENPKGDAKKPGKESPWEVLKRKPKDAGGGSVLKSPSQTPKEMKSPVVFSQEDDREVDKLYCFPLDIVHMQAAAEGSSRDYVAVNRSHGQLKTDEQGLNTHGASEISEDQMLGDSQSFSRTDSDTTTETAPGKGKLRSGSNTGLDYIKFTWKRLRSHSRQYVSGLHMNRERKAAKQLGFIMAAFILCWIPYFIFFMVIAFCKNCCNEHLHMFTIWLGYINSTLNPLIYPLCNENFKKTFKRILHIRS
T2 sequence (Q9Y5N1 whole entry, species assumed): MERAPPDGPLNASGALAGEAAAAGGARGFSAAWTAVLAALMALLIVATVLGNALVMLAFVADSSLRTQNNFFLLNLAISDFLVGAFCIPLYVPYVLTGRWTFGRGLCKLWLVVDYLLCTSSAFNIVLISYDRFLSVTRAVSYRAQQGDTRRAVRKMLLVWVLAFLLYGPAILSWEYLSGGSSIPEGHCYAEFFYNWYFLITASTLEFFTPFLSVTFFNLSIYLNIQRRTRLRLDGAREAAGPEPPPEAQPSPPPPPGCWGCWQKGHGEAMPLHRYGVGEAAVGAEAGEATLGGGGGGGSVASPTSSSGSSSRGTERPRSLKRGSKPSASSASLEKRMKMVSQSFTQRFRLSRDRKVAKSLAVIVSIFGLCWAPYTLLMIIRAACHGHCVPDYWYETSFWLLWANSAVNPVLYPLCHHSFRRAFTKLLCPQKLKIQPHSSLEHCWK

For the compound `CS(=O)(=O)c1ccc(C(=O)N2CCN(c3ccc(OC4CCN(C5CCC5)CC4)cc3)CC2)cc1` [compound of formula (I), 1-{4-[(1-Cyclobutyl-4-piperidinyl)oxy]phenyl}4-{[4-(methylsulfonyl)phenyl]carbonyl}piperazine], the concentration at 5 min in the series “CNS penetration” was less than 100 ng/g. The Ki on human H1 receptor is approximately 2.51 µM; on histamine H3 receptor it was approximately 0.000251 µM. For the same compound, the clearance (as a rule, the volume of plasma or blood freed of the substance per unit of time) in “Rat pharmacokinetics” (male, CD Sprague Dawley, whole blood, 1 mg/kg intravenous) is approximately 29 mL/min/kg; in the series “Dog pharmacokinetics” (male, Beagle, whole blood, 1 mg/kg intravenous), approximately 10 mL/min/kg. Moreover, the half-life (as a rule, how long it takes for the measured level to halve) in the series “Rat pharmacokinetics” (male, CD Sprague Dawley, whole blood, IV route, 1 mg/kg) was approximately 2 h; in the series “Dog pharmacokinetics” (male, Beagle, whole blood, IV route, 1 mg/kg), approximately 5 h. In addition, the “oral bioavailability in the rat” value in “Rat pharmacokinetics” (oral 3 mg/kg vs intravenous 1 mg/kg) is on record as “greater than 50 %F”. For the same compound, the “oral bioavailability in the dog” value in “Dog pharmacokinetics” (oral 2 mg/kg vs intravenous 1 mg/kg) is “about 99 % F”.
